Test results from PMC4885601 (Journal of Medicinal Chemistry, 2016).
Where two headings read alike, the source gives them in different places.

How the values were obtained:
δ-opioid receptor (DOR) [1] = target: T1, δ-opioid receptor (DOR) (Rattus norvegicus, UniProt P33533); settings: cited from earlier work
mouse [2] = assay: In vivo warm water tail withdrawal; settings: ip, up to 10 mg/kg
κ-opioid receptor (KOR) = κ-opioid receptor (KOR) (Homo sapiens, UniProt P41145); assay: Stimulation of [35S]GTPγS binding at KOR; assay type: biochemical; settings: percent maximal stimulation relative to U69,593 at 10 μM
δ-opioid receptor (DOR) [3] = target: T1, δ-opioid receptor (DOR); assay: Stimulation of [35S]GTPγS binding at DOR; assay type: biochemical; settings: percent maximal stimulation relative to DPDPE at 10 μM
mouse [4] = settings: WWTW assay; cited from earlier work

T1 sequence (P33533 whole entry): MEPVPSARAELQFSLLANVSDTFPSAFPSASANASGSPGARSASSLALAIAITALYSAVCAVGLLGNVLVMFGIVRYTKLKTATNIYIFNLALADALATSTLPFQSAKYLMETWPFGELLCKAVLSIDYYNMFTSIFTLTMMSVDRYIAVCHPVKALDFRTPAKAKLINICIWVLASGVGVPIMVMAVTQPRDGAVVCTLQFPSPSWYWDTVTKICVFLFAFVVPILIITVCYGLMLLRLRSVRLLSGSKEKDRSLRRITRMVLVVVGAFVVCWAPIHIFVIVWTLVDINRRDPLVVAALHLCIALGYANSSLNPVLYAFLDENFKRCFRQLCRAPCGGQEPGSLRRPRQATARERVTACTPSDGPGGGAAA
κ-opioid receptor (KOR), sequence (P41145 whole entry): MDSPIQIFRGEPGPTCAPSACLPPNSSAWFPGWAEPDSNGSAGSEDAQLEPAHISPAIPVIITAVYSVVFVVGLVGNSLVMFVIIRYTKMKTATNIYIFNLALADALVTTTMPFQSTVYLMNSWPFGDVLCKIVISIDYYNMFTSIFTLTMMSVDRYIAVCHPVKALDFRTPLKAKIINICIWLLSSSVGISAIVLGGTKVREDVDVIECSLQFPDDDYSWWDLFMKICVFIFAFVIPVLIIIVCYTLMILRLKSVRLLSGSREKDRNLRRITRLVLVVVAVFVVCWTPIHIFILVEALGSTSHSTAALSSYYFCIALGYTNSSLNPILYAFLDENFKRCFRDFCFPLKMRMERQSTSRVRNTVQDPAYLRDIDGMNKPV

CC(=O)N1CC[C@@H](NC(=O)[C@@H](N)Cc2c(C)cc(O)cc2C)c2cc(Cc3ccccc3)ccc21 [4b, (S)-N-((R)-1-Acetyl-6-benzyl-1,2,3,4-tetrahydroquinolin-4-yl)-2-amino-3-(4-hydroxy-2,6-dimethylphenyl)propanamide]
% stimulation DOR (δ-opioid receptor (DOR) [1]): 26%

Cc1cc(O)cc(C)c1C[C@H](N)C(=O)N[C@@H]1CCN(C(=O)C2CC2)c2ccc(Cc3ccccc3)cc21 [4f, (S)-2-Amino-N-((R)-6-benzyl-1-(cyclopropanecarbonyl)-1,2,3,4-tetrahydroquinolin-4-yl)-3-(4-hydroxy-2,6-dimethylphenyl)propanamide]
antinociception in the WWTW assay (mouse [2]): partial antinociception

Cc1cc(O)cc(C)c1C[C@H](N)C(=O)N[C@@H]1CCN(C(=O)C2CCC2)c2ccc(Cc3ccccc3)cc21 [4g, (S)-2-Amino-N-((R)-6-benzyl-1-(cyclobutanecarbonyl)-1,2,3,4-tetrahydroquinolin-4-yl)-3-(4-hydroxy-2,6-dimethylphenyl)propanamide]
% stimulation KOR (κ-opioid receptor (KOR)): no efficacy

COC(=O)N1CC[C@@H](NC(=O)[C@@H](N)Cc2c(C)cc(O)cc2C)c2cc(Cc3ccccc3)ccc21 [4h, Methyl (R)-4-((S)-2-Amino-3-(4-hydroxy-2,6-dimethylphenyl)propanamido)-6-benzyl-3,4-dihydroquinoline-1(2H)-carboxylate]
antinociception in the WWTW assay (mouse [2]): full in vivo antinociception

Cc1cc(O)cc(C)c1C[C@H](N)C(=O)N[C@@H]1CCN(C(=O)c2ccccc2)c2ccc(Cc3ccccc3)cc21 [4j, (S)-2-Amino-N-((R)-1-benzoyl-6-benzyl-1,2,3,4-tetrahydroquinolin-4-yl)-3-(4-hydroxy-2,6-dimethylphenyl)propanamide]
% stimulation DOR (δ-opioid receptor (DOR) [3]): no stimulation

CC(=O)N1CC[C@@H](NC(=O)[C@@H](N)Cc2c(C)cc(O)cc2C)c2cc(Cc3ccc4ccccc4c3)ccc21 [15b, (S)-N-((R)-1-Acetyl-6-(naphthalen-2-ylmethyl)-1,2,3,4-tetrahydroquinolin-4-yl)-2-amino-3-(4-hydroxy-2,6-dimethylphenyl)propanamide]
duration of in vivo antinociception (mouse [4]): greater than 3 h
